Results reported in patent US5393897A, “Isolation and structure of spongistatins 5,7,8 and 9” (Arizona Board of Regents acting on behalf of Arizona State …, priority 1993, dated 1995).
In brackets after ≈: the same amount, converted by molar mass. Read-outs that look alike come from different tables or passages of the source.

Experiments:
Assay type in all cases: cell-based
[1] = tested on: P388 lymphocytic leukemia cell line; assay: P388 lymphocytic leukemia cell line bioassay; details: Mus musculus, pure compound
786-0 = assay: NCI cell line panel; details: Homo sapiens, Renal Cancer; for GI50: read-out: Log10 GI50 (converted); for IC (TGI): read-out: Log10 TGI (converted)
Excerpt: (§1) Only two hundred years ago, many diseases ravaged humankind. Many of these diseases now have been controlled or eradicated. In the development of the means to treat or control these diseases, work with the appropriate common experimental animals was of critical importance. With the various types of cancers, and with the HIV virus, such work is presently ongoing. The research for the treatment of various types of cancer is coordinated in the United States by the National Cancer Institute (NCI). NCI, as a government entity, has been charged with assisting anti-cancer research. To establish whether a substance has anti-cancer activity, NCI has established a variety of protocols, one of which involves testing the candidate substance against a cell line panel containing 60 human tumor cell lines. This protocol has been verified and is generally accepted throughout the scientific community. This protocol and the established statistical means of evaluating the results obtained therefrom have been fully described in the literature. See Principles & Practice of Oncology PPO Updates, Volume 3, Number 10, October 1989, by Michael R. Boyd, M.D., Ph.D., for an in depth description of the test protocol. The statistical analysis is explained in "Display and Analysis of Patterns of Differential Activity of Drugs Against Human Tumor Cell Lines: Development of Means Graph and COMPARE Algorithm" Journal of the National Cancer Institute Reports Vol. 81, No. 14, Pg. 1088, Jul. 14, 1989, by K. D. Paull et al. Both of these references are incorporated herein by this reference thereto. The effectiveness and validity of the NCI in vitro protocol continues to be verified.

A549/ATCC = assay: NCI cell line panel; details: Homo sapiens, Non-Small Cell Lung Cancer; for GI50: read-out: Log10 GI50 (converted); for IC (TGI): read-out: Log10 TGI (converted)
Excerpt: as §1

CCRF-CEM = assay: NCI cell line panel; details: Homo sapiens, Leukemia; for GI50: read-out: Log10 GI50 (converted)
Excerpt: as §1

DU-145 = assay: NCI cell line panel; details: Homo sapiens, Prostate Cancer, read-out: Log10 GI50 (converted)
Excerpt: as §1

EKVX = assay: NCI cell line panel; details: Homo sapiens; for GI50: read-out: Log10 GI50 (converted)
Excerpt: as §1

HOP-62 = assay: NCI cell line panel; details: Homo sapiens
Excerpt: as §1

HS 578T = assay: NCI cell line panel; details: Homo sapiens; for GI50: read-out: Log10 GI50 (converted)
Excerpt: as §1

MCF7/ADR-RES = assay: NCI cell line panel; details: Homo sapiens, Breast Cancer; for GI50: read-out: Log10 GI50 (converted)
Excerpt: as §1

MDA-MB-231/ATCC = assay: NCI cell line panel; details: Homo sapiens, Breast Cancer, read-out: Log10 GI50 (converted)
Excerpt: as §1

NCI-H226 = assay: NCI cell line panel; details: Homo sapiens, Non-Small Cell Lung Cancer, read-out: Log10 GI50 (converted)
Excerpt: as §1

NCI-H23 = assay: NCI cell line panel; details: Homo sapiens, Non-Small Cell Lung Cancer, read-out: Log10 GI50 (converted)
Excerpt: as §1

RXF-393 = assay: NCI cell line panel; details: Homo sapiens, Renal Cancer; for GI50: read-out: Log10 GI50 (converted)
Excerpt: as §1

SF-268 = assay: NCI cell line panel; details: Homo sapiens, CNS Cancer; for GI50: read-out: Log10 GI50 (converted); for IC (TGI): read-out: Log10 TGI (converted)
Excerpt: as §1

SNB-75 = assay: NCI cell line panel; details: Homo sapiens, CNS Cancer, read-out: Log10 GI50 (converted)
Excerpt: as §1

T-47D = assay: NCI cell line panel; details: Homo sapiens, T47D, Breast Cancer
Excerpt: as §1

TK-10 = assay: NCI cell line panel; details: Homo sapiens
Excerpt: as §1

U251 = assay: NCI cell line panel; details: Homo sapiens, U-251; CNS Cancer; read-out: Log10 GI50 (converted)
Excerpt: as §1

UO-31 = assay: NCI cell line panel; details: Homo sapiens
Excerpt: as §1

KM12 = assay: NCI cell line panel; details: Homo sapiens, KM12, read-out: Log10 GI50 (converted)
Excerpt: as §1

MALME-3M = assay: NCI cell line panel; details: Homo sapiens, read-out: Log10 GI50 (converted)
Excerpt: as §1

MDA-MB-435 = assay: NCI cell line panel; details: Homo sapiens, Breast Cancer, read-out: Log10 GI50 (converted)
Excerpt: as §1

NCI-H460 = assay: NCI cell line panel; details: Homo sapiens
Excerpt: as §1

NCI-H522 = assay: NCI cell line panel; details: Homo sapiens, Non-Small Cell Lung Cancer, read-out: Log10 GI50 (converted)
Excerpt: as §1

SK-MEL-28 = assay: NCI cell line panel; details: Homo sapiens, SK-MEL-28, read-out: Log10 GI50 (converted)
Excerpt: as §1

SK-MEL-2 = assay: NCI cell line panel; details: Homo sapiens, Melanoma, read-out: Log10 GI50 (converted)
Excerpt: as §1

SK-MEL-5 = assay: NCI cell line panel; details: Homo sapiens, Melanoma, read-out: Log10 GI50 (converted)
Excerpt: as §1

SW-620 = assay: NCI cell line panel; details: Homo sapiens, SW-620, read-out: Log10 GI50 (converted)
Excerpt: as §1

UACC-257 = assay: NCI cell line panel; details: Homo sapiens, Melanoma, read-out: Log10 GI50 (converted)
Excerpt: as §1

UACC-62 = assay: NCI cell line panel; details: Homo sapiens, UACC-62, read-out: Log10 GI50 (converted)
Excerpt: as §1

Melanoma = assay: NCI cell line panel, melanoma lines, value not assignable to a single line; details: Homo sapiens, 7 values printed for 8 cell lines, in printed order, read-out: Log10 TGI (converted)
Excerpt: as §1, with “The statistical analysis is explained in "Display and Analysis of Patterns of Differential Activity of Drugs Against Human Tumor Cell Lines: Development of Means Graph and COMPARE Algorithm" Journal of the National Cancer Institute Reports Vol. 81, No. 14, Pg. 1088, Jul. 14, 1989, by K. D. Paull et al. Both of these references are incorporated herein by this reference thereto. The effectiveness and validity of the NCI in vitro protocol continues to be verified.” left out

[2] = read-out: Log10 TGI (converted)

C=C(Cl)/C=C/C(O)CC(=C)CC1OC2C(C)C(OC(=O)CC3CC(O)CC4(CC(C)(O)CC(C=C5COC(C(C)C(=O)CC6CC(OC)CC7(CC(O)CC(/C=C\CCCC8OC(O)(CC(O)C8C)C2O)O7)O6)C5C)O4)O3)C1O (stereo not drawn) [spongistatin 5]
IC50 ([1]; PS (P388), read-out: ED50 (the source's name)): 0.066 ng/mL (≈ 0.058 nM)
GI50 (786-0): 0.0251 nM
IC (TGI) (786-0): 1.2 nM
GI50 (A549/ATCC): 0.0209 nM
IC (TGI) (A549/ATCC): 75.9 nM
GI50 (CCRF-CEM): 0.017 nM
IC (TGI) (CCRF-CEM; [2]): 4.17 nM
GI50 (DU-145): 0.024 nM
GI50 (EKVX): 0.182 nM
GI50 (HOP-62; HOP-62, Non-Small Cell Lung Cancer, read-out: Log10 GI50 (converted)): 0.151 nM
GI50 (HS 578T; Breast Cancer): 0.437 nM
GI50 (MCF7/ADR-RES): 0.912 nM
GI50 (MDA-MB-231/ATCC): 0.251 nM
GI50 (NCI-H226): 0.759 nM
GI50 (NCI-H23): 0.0347 nM
GI50 (RXF-393): 0.0417 nM
GI50 (SF-268): 0.151 nM
IC (TGI) (SF-268): 100 nM
GI50 (SNB-75): 0.012 nM
GI50 (T-47D; read-out: Log10 GI50 (converted)): 100 nM
GI50 (TK-10; TK-10, Renal Cancer, read-out: Log10 GI50 (converted)): 36.3 nM
GI50 (U251): 0.0617 nM
GI50 (UO-31; UO-31, read-out: Log10 GI50 (converted)): 0.427 nM

C=C/C=C/C(O)CC(=C)CC1OC2C(C)C(OC(=O)CC3CC(O)CC4(CC(C)(O)CC(C=C5COC(C(C)C(=O)CC6CC(OC)CC7(CC(O)CC(/C=C\CCCC8OC(O)(CC(O)C8C)C2O)O7)O6)C5C)O4)O3)C1O (stereo not drawn) [spongistatin 7]
IC50 ([1]; P388, unit inferred, read-out: P388 ED50): 2.6 ng/mL (≈ 2.36 nM)
GI50 (786-0): 2 nM
IC (TGI) (786-0): 100 nM
GI50 (A549/ATCC): 3.47 nM
IC (TGI) (A549/ATCC): 100 nM
GI50 (CCRF-CEM): 0.24 nM
GI50 (DU-145): 1.58 nM
GI50 (EKVX; Non-Small Cell Lung Cancer): 41.7 nM
IC (TGI) (EKVX; Non-Small Cell Lung Cancer, read-out: Log10 TGI (converted)): 100 nM
GI50 (HOP-62; HOP-62, read-out: Log10 GI50 (converted)): 1 nM
IC (TGI) (HS 578T; Breast Cancer, read-out: Log10 TGI (converted)): 100 nM
GI50 (HS 578T): 1.29 nM
GI50 (KM12): 0.219 nM
GI50 (MALME-3M): 0.398 nM
GI50 (MCF7/ADR-RES): 77.6 nM
IC (TGI) (MCF7/ADR-RES; [2]): 100 nM
GI50 (MDA-MB-231/ATCC): 1.58 nM
GI50 (MDA-MB-435): 0.0191 nM
GI50 (NCI-H226): 2 nM
GI50 (NCI-H23): 0.708 nM
GI50 (NCI-H460; NCI-H460, read-out: Log10 GI50 (converted)): 2.09 nM
IC (TGI) (NCI-H460; NCI-H460, Non-Small Cell Lung Cancer, read-out: Log10 TGI (converted)): 100 nM
GI50 (NCI-H522): 0.0282 nM
GI50 (RXF-393): 2.69 nM
IC (TGI) (RXF-393; [2]): 100 nM
GI50 (SF-268): 6.31 nM
IC (TGI) (SF-268): 100 nM
GI50 (SK-MEL-28): 1.29 nM
GI50 (SK-MEL-2): 0.347 nM
GI50 (SK-MEL-5): 0.0851 nM
GI50 (SNB-75): 0.372 nM
GI50 (SW-620): 0.389 nM
IC (TGI) (T-47D; [2]): 100 nM
GI50 (TK-10; TK-10, read-out: Log10 GI50 (converted)): 56.2 nM
IC (TGI) (TK-10; TK-10, Renal Cancer, read-out: Log10 TGI (converted)): 100 nM
GI50 (U251): 0.759 nM
GI50 (UACC-257): 14.1 nM
GI50 (UACC-62): 0.309 nM
GI50 (UO-31; UO-31, Renal Cancer, read-out: Log10 GI50 (converted)): 24 nM
IC (TGI) (Melanoma): 46.8 nM
